7 molecules from PubChem BioAssay (NCI) can be followed below.

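A five-concentration, 48-hour dose response in 96-well plates underlies each endpoint, interpolated linearly between surrounding concentrations. TGI is the concentration that stops growth completely.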

Test systems include A549 NSCLC; BT-549 breast; HCC-2998 colon; HCT-116 colon; K-562 leukemia; M14 melanoma; MDA-MB-435; NCI-H226 lung; OVCAR-4 ovarian; SF-268 CNS; SF-539 CNS; SK-MEL-28 melanoma; SK-OV-3 ovarian; SN12C renal; SW-620 colon; T-47D breast; U251 CNS; UACC-257 melanoma; UO-31 renal; CCRF-CEM leukemia.
Common to all, as to experiment: NCI-60 cell line screen, 48 h

As for `COC(=O)C(=O)C(C(=O)OC)C(=O)C(=O)Nc1c(Cl)cc([N+](=O)[O-])cc1Cl` (configuration not stated), the TGI with A549 NSCLC, with BT-549 breast, in the test on HCC-2998 colon, with HCT-116 colon, with K-562 leukemia and in the test on M14 melanoma was more than 100 µM in each case. Moreover, the TGI in the test with MDA-MB-435, with NCI-H226 lung, with OVCAR-4 ovarian, in the test on SF-268 CNS, in the test with SF-539 CNS and in the test with SK-MEL-28 melanoma was more than 100 µM in each case. Also, the TGI in the test with SK-OV-3 ovarian, in the test with SN12C renal, in the test on SW-620 colon, with T-47D breast, in the test with U251 CNS and with UACC-257 melanoma was more than 100 µM throughout. Moreover, the TGI in the test with UO-31 renal was more than 100 µM.

Turning to `O=c1/c(=C/c2ccccn2)sc2nc3cc4c(cc3n12)OCCO4`, the TGI in the test on A549 NSCLC, with BT-549 breast, in the test with CCRF-CEM leukemia, in the test on HCC-2998 colon, in the test on HCT-116 colon and with K-562 leukemia was more than 100 µM throughout. Besides, the TGI with M14 melanoma, in the test with MDA-MB-435, in the test with NCI-H226 lung, with OVCAR-4 ovarian, in the test on SF-268 CNS and in the test on SK-MEL-28 melanoma was more than 100 µM throughout. For the same molecule, the TGI with SK-OV-3 ovarian, in the test on SN12C renal, with SW-620 colon, with T-47D breast, in the test with U251 CNS and in the test with UACC-257 melanoma was more than 100 µM each time. The molecule further showed a TGI in the test with UO-31 renal of more than 100 µM.

Regarding `COc1ccc(-c2cc(-c3ccc(Nc4ccnc5cc(Cl)ccc45)cc3)[nH]c(=O)c2C#N)cc1`, the TGI in the test on A549 NSCLC, with BT-549 breast, with HCC-2998 colon, with HCT-116 colon, in the test on K-562 leukemia and with M14 melanoma was more than 100 µM in each case. Moreover, the TGI in the test with MDA-MB-435, in the test with NCI-H226 lung, with OVCAR-4 ovarian, in the test with SF-268 CNS, in the test with SF-539 CNS and in the test on SK-MEL-28 melanoma was more than 100 µM each time. The TGI in the test on SK-OV-3 ovarian, in the test on SW-620 colon, in the test with T-47D breast, in the test on U251 CNS and in the test on UO-31 renal was more than 100 µM each time.

In the case of `CCC(Nc1ncnc2nc[nH]c12)C(=O)O` (configuration not stated), the TGI with A549 NSCLC, in the test on BT-549 breast, in the test with CCRF-CEM leukemia, in the test on HCC-2998 colon, in the test with HCT-116 colon and in the test with K-562 leukemia was more than 100 µM each time. Further, the TGI with M14 melanoma, with MDA-MB-435, with NCI-H226 lung, with OVCAR-4 ovarian, with SF-268 CNS and in the test on SK-MEL-28 melanoma was more than 100 µM throughout. In addition, the TGI in the test on SK-OV-3 ovarian, with SN12C renal, in the test with SW-620 colon, in the test with T-47D breast, in the test with U251 CNS and with UACC-257 melanoma was more than 100 µM each time. Also, the TGI in the test with UO-31 renal is more than 100 µM.

Take `Cc1nc2ccc(NC3OCC(O)C(O)C3O)cc2c(=O)n1-c1ccccc1` (configuration not stated): the TGI with BT-549 breast, in the test on HCC-2998 colon, in the test on HCT-116 colon, with K-562 leukemia, with MDA-MB-435 and in the test with NCI-H226 lung was more than 100 µM in each case. The TGI with OVCAR-4 ovarian, in the test with SF-268 CNS, with SK-MEL-28 melanoma, in the test with SN12C renal, in the test with SW-620 colon and in the test on T-47D breast was more than 100 µM in each case. In addition, the TGI in the test with U251 CNS, with UACC-257 melanoma and with UO-31 renal was more than 100 µM each time.

In the case of `O=C1c2cccnc2-c2nccc3c2c1nc1ccccc13`, the TGI came to 0.739 µM with A549 NSCLC; 0.618 µM in the test on BT-549 breast; 10.2 µM in the test on CCRF-CEM leukemia; 0.18 µM in the test with HCT-116 colon; 0.667 µM in the test with K-562 leukemia; 0.269 µM in the test on M14 melanoma. Moreover, the TGI worked out at 0.444 µM in the test on MDA-MB-435; 0.738 µM in the test with NCI-H226 lung; 3.56 µM in the test on OVCAR-4 ovarian; 0.834 µM with SF-268 CNS; 0.544 µM in the test with SF-539 CNS; 1.47 µM with SK-MEL-28 melanoma. Moreover, the TGI in the test with SK-OV-3 ovarian is 1.19 µM; in the test with SN12C renal it was 1.03 µM; in the test with SW-620 colon, 0.237 µM; in the test on T-47D breast, 2.08 µM; in the test with U251 CNS, 0.703 µM; in the test with UACC-257 melanoma, 1.06 µM. The molecule further had a TGI in the test on UO-31 renal of 0.634 µM.

For `Cc1[nH]c2nccn2c(=O)c1CCO`, the TGI in the test on A549 NSCLC, in the test with BT-549 breast, in the test with CCRF-CEM leukemia, with HCT-116 colon, with K-562 leukemia and with M14 melanoma was more than 10 µM each time. The TGI in the test on MDA-MB-435, with NCI-H226 lung, with OVCAR-4 ovarian, in the test on SF-268 CNS, with SF-539 CNS and with SK-MEL-28 melanoma was more than 10 µM throughout. Moreover, the TGI in the test on SK-OV-3 ovarian, with SN12C renal, in the test with SW-620 colon, with T-47D breast, in the test on U251 CNS and in the test with UACC-257 melanoma was more than 10 µM in each case. In the test on UO-31 renal, this molecule gave a TGI of more than 10 µM.
